Test results published in patent publication US10000474B2, “Histone deacetylase inhibitors and uses thereof” (MUSC FOUNDATION FOR RESEARCH DEVELOPMENT, priority 2014, dated 2018).
Where a name gives a salt, the structure may show the parent alone.

How the values were obtained:
Format in all cases: biochemical
Conditions in all cases: test concentration not given; average of triplicate
Recombinant human HDAC5 = target: T1, Recombinant human HDAC5 (Homo sapiens, UniProt Q9UQL6); experiment: HDAC inhibitory assay, HDAC5 (Boc-Lys(Tfa)-AMC substrate)
T1 construct: purchased BPS Biosciences
Protocol: (§1) The compounds of Examples 1-12 and 14-16 were evaluated for their ability to act as inhibitors of human HDAC. The compound of Example 13 was not tested. Recombinant human HDAC1, HDAC2, HDAC3/NcoR2, HDAC5, HDAC6, HDAC8, HDAC9, HDAC10 and HDAC11 were purchased from BPS Biosciences. Recombinant human HDAC4 and HDAC7 were purchased from Millipore. The substrate Boc-Lys(Ac)-AMC and Boc-Lys(Tfa)-AMC were purchased from Bachem. The substrate Ac-RHK(Ac)K(Ac)-AMC was purchased from Enzo Life Sciences. Due to the different specific activities of each isoform, different amount of enzyme was used in each isoform screening assay. In these assays, trichostatin A (TSA), suberanilohydroxamic acid and diphenylacetohydroxamic acid (DPAHA) were employed as positive controls. All determinations were carried out in triplicate, and reported values were the average of these determinations, which in no case varied by more than 5%.
(§2) For evaluating the inhibition of class IIa HDACs (HDAC4, HDAC5, HDAC7 and HDAC9) and class IV HDAC (HDAC11), 10 μl of test samples were first incubated with 1 ng HDAC4 (specific activity=15400 pmol/min/μg), 5 ng HDAC5 (specific activity=2521 pmol/min/μg), 1 ng HDAC7 (specific activity=26340 pmol/min/μg), 5 ng HDAC9 (specific activity=3000 pmol/min/μg), and 500 ng HDAC11 (specific activity=1.8 pmol/min/μg) respectively. Then 25 μl of the Boc-Lys(Tfa)-AMC substrate (50 μM final concentration) was added and incubated at 37° C. for 30-60 min, and followed by adding 50 μl of developer. The last step was to read the samples in a SpectraMax M5 plate reader (Molecular Devices) at an excitation wavelength of 360 nm and an emission wavelength of 460 nm.

Recombinant human HDAC6 = target: T2, Recombinant human HDAC6 (Homo sapiens, UniProt Q9UBN7); experiment: HDAC inhibitory assay, HDAC6 (Boc-Lys(Ac)-AMC substrate)
T2 construct: purchased BPS Biosciences
T2 sequence (Q9UBN7 1-1215): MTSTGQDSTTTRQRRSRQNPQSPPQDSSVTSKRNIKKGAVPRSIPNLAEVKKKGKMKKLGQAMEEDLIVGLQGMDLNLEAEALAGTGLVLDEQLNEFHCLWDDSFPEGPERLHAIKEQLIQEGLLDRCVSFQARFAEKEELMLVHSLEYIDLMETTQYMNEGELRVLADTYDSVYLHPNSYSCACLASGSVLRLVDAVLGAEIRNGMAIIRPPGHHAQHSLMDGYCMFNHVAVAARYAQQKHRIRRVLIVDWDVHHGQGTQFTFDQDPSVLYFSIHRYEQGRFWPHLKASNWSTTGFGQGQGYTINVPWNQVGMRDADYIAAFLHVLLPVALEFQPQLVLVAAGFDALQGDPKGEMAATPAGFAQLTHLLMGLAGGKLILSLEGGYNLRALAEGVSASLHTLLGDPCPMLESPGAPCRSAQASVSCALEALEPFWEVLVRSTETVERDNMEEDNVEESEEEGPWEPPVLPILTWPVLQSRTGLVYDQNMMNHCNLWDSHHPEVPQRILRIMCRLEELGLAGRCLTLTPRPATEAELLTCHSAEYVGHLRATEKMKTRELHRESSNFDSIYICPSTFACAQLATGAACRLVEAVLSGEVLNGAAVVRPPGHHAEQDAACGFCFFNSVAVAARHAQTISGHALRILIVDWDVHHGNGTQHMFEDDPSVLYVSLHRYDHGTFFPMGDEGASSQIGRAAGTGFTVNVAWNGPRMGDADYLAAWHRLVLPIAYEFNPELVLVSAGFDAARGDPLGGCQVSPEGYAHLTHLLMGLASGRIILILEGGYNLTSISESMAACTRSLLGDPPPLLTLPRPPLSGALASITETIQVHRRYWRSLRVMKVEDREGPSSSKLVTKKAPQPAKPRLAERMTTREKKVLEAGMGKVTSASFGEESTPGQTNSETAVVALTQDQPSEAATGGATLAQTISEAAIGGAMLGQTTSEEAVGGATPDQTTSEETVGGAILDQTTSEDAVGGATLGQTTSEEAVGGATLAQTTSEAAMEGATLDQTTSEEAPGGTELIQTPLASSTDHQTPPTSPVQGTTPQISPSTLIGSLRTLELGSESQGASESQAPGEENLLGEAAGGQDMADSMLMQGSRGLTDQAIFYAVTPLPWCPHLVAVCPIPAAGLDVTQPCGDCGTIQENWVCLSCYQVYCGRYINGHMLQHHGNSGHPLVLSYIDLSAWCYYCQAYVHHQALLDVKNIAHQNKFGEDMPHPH
Protocol: as §1
(§3) Then 25 μl of the Boc-Lys(Ac)-AMC substrate (50 μM final concentration) was added and incubated at 37° C. for 30-60 min, and followed by adding 50 μl of developer (1 mg/ml trypsin and 1 μM TSA). The last step was reading the samples in a SpectraMax M5 plate reader (Molecular Devices) at an excitation wavelength of 360 nm and an emission wavelength of 460 nm.

Recombinant human HDAC9 = target: T3, Recombinant human HDAC9 (Homo sapiens, UniProt Q9UKV0); experiment: HDAC inhibitory assay, HDAC9 (Boc-Lys(Tfa)-AMC substrate)
T3 construct: purchased BPS Biosciences
Protocol: as §1, §2

Recombinant human HDAC10 = target: T4, Recombinant human HDAC10 (Homo sapiens, UniProt Q969S8); experiment: HDAC inhibitory assay, HDAC10 (Boc-Lys(Ac)-AMC substrate)
T4 construct: purchased BPS Biosciences
T4 sequence (Q969S8 1-669): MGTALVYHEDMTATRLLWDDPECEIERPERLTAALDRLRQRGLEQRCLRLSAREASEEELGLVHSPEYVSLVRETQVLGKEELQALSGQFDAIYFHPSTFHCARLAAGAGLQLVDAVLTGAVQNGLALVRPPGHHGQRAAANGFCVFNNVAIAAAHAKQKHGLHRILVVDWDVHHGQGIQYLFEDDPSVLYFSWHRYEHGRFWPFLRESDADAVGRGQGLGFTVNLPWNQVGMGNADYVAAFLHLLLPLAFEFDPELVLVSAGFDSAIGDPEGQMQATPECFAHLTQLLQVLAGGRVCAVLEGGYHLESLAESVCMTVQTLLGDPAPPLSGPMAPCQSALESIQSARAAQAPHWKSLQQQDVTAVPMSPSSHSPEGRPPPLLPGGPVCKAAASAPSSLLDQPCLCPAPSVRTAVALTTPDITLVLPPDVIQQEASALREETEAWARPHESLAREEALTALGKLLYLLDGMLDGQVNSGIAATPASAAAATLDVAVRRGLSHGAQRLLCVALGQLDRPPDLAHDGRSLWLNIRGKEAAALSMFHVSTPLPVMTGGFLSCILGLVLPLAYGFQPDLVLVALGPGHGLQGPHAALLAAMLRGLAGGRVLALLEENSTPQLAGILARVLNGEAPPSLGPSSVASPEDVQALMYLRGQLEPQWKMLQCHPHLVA
Protocol: as §1, §3

T3 sequence (Q9UKV0 whole entry): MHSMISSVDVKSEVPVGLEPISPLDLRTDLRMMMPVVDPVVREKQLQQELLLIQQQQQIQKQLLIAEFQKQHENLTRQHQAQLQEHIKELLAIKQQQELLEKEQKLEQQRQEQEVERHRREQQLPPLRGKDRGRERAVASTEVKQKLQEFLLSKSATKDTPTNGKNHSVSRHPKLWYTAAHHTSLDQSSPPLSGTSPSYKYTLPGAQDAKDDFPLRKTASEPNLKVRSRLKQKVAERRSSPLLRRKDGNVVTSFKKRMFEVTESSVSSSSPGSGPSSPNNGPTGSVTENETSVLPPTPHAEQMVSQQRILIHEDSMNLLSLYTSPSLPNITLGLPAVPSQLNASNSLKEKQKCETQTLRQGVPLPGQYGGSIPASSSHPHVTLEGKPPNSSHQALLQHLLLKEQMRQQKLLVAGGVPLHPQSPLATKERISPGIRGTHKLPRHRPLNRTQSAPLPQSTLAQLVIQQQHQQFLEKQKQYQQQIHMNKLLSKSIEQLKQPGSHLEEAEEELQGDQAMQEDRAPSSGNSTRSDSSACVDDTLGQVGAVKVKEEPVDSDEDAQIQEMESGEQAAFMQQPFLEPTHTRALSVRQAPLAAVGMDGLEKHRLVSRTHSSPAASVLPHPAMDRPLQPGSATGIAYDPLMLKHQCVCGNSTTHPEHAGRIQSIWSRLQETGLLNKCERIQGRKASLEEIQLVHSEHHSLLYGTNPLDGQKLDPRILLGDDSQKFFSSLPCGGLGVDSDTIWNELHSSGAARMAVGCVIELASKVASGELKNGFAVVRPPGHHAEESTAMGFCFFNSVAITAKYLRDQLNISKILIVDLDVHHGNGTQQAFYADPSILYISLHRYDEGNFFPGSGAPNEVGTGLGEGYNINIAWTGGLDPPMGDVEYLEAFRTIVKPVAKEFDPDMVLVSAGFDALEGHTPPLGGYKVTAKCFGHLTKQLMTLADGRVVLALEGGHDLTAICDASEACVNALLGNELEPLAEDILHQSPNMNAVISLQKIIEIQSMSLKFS
T1 sequence (Q9UQL6 whole entry): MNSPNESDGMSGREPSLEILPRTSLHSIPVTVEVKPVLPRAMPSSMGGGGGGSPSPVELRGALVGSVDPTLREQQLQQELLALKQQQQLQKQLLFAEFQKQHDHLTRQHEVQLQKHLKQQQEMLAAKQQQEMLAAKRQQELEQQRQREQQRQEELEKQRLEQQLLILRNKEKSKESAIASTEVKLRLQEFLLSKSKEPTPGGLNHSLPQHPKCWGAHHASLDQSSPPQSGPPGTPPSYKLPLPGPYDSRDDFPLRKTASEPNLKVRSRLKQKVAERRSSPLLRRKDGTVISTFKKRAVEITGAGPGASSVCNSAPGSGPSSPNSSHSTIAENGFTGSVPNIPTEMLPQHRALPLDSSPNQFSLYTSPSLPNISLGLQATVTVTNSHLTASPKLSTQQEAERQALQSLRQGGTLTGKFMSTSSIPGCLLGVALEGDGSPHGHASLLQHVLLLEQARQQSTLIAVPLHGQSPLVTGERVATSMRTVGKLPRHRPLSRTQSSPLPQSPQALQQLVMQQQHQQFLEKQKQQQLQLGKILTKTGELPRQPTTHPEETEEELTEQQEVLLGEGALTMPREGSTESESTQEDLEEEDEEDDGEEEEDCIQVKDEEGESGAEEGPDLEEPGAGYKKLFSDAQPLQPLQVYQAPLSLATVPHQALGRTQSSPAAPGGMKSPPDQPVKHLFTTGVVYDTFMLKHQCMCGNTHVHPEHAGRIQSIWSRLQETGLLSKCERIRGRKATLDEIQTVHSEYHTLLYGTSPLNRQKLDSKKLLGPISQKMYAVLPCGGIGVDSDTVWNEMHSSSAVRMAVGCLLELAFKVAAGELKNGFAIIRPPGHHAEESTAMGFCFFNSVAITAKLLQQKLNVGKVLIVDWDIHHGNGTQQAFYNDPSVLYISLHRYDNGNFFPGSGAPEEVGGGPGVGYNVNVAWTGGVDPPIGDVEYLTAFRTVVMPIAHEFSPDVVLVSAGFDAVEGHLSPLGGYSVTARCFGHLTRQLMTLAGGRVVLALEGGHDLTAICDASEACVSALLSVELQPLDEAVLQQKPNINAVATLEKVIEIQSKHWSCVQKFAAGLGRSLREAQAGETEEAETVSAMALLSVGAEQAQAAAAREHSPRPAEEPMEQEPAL

| Compound | HDAC 5 inhibitory activity (Recombinant human HDAC5) [%] | HDAC 6 inhibitory activity (Recombinant human HDAC6) [%] | HDAC 9 inhibitory activity (Recombinant human HDAC9) [%] | HDAC 10 inhibitory activity (Recombinant human HDAC10) [%] |
| --- | --- | --- | --- | --- |
| O=C(Nc1ccccc1)c1coc(-c2ccccc2O)n1 [Example 1, 2-(2-Hydroxyphenyl)-N-phenyloxazole-4-carboxamide] | 9.3 | 50.3 | 20.5 | 48.8 |
| O=C(NC(c1ccccc1)c1ccccc1)c1coc(-c2ccccc2O)n1 [Example 2, N-Benzhydryl-2-(2-hydroxyphenyl)oxazole-4-carboxamide] | 14.9 | 61.6 | 33.3 | 47.1 |
| O=C(NCC(c1ccccc1)c1ccccc1)c1coc(-c2ccccc2O)n1 [Example 3, N-(2,2-Diphenylethyl)-2-(2-hydroxyphenyl)oxazole-4-carboxamide] | 0 | 49.1 | 21.6 | 35.7 |
| O=C(NCCC(c1ccccc1)c1ccccc1)c1coc(-c2ccccc2O)n1 [Example 4, N-(3,3-Diphenylpropyl)-2-(2-hydroxyphenyl)oxazole-4-carboxamide] | 11.3 | 48.1 | 28.2 | 69.8 |
| O=C(Nc1ccc(-c2ccccc2)cc1)c1coc(-c2ccccc2O)n1 [Example 5, N-([1,1′-Biphenyl]-4-yl)-2-(2-hydroxyphenyl)oxazole-4-carboxamide] | 0 | 45.6 | 32.4 | 58.6 |
| O=C(NCc1ccc(-c2ccccc2)cc1)c1coc(-c2ccccc2O)n1 [Example 6, N-([1,1′-Biphenyl]-4-ylmethyl)-2-(2-hydroxyphenyl)oxazole-4-carboxamide] | 9.2 | 47.8 | 20.8 | 48.7 |
| O=C(NCc1cccc2ccccc12)c1coc(-c2ccccc2O)n1 [Example 7, 2-(2-Hydroxyphenyl)-N-(naphthalen-1-ylmethyl)oxazole-4-carboxamide] | 3.2 | 40.4 | 15.5 | 44.5 |
| O=C(NCCc1c[nH]c2ccccc12)c1coc(-c2ccccc2O)n1 [Example 8, N-(2-(1H-Indol-3-yl)ethyl)-2-(2-hydroxyphenyl)oxazole-4-carboxamide] | 0 | 30.8 | 18.4 | 44.8 |
| O=C(NCCCCN1C(=O)c2ccccc2C1=O)c1coc(-c2ccccc2O)n1 [Example 9, N-(4-(1,3-Dioxoisoindolin-2-yl)butyl)-2-(2-hydroxyphenyl)oxazole-4-carboxamide] | 10.3 | 46.0 | 16.4 | 32.1 |
| O=C(NCCCCNC(=O)C(c1ccccc1)c1ccccc1)c1coc(-c2ccccc2O)n1 [Example 10, N-(4-(2,2-Diphenylacetamido)butyl)-2-(2-hydroxyphenyl)oxazole-4-carboxamide] | 1.4 | 26.7 | 9.0 | 56.5 |
| O=C(NCCCCNC(=S)NCCC(c1ccccc1)c1ccccc1)c1coc(-c2ccccc2O)n1 [Example 11, N-(4-(3-(3,3-Diphenylpropyl)thioureido)butyl)-2-(2-hydroxyphenyl)oxazole-4-carboxamide] | 43.5 | 50.2 | 70.2 | 91.2 |
| O=C(NCCCCNCCC(c1ccccc1)c1ccccc1)c1coc(-c2ccccc2O)n1 [Example 12, N-(4-((3,3-Diphenylpropyl)amino)butyl)-2-(2-hydroxyphenyl)oxazole-4-carboxamide hydrochloride] | 6.9 | 28.9 | 16.4 | 26.2 |
| O=C(O)c1ccc(CNC(=O)c2coc(-c3ccccc3O)n2)cc1 [Example 14, 4-((2-(2-Hydroxyphenyl)oxazole-4-carboxamido)methyl)benzoic acid] | 12.6 | 60.3 | 26.3 | 47.2 |
| O=C(Nc1ccccc1)c1ccc(CNC(=O)c2coc(-c3ccccc3O)n2)cc1 [Example 15, 2-(2-Hydroxyphenyl)-N-(4-(phenylcarbamoyl)benzyl)oxazole-4-carboxamide] | 0 | 30.8 | 24.3 | 56.3 |
| O=C(CNC(=O)c1coc(-c2ccccc2O)n1)Nc1ccccc1 [Example 16, 2-(2-Hydroxyphenyl)-N-(2-oxo-2-(phenylamino)ethyl)oxazole-4-carboxamide] | 12.5 | 59.9 | 14.2 | 54.7 |
